One data set has as its target T1, CK2A2 (Homo sapiens, UniProt P19784).
T1 construct: purchased Eurofins
The experiment in a line: Radiometric kinase assay (Eurofins), CK2A2. The following applies: read-out: CK2A2 RAD IC50. It counts as biochemical. The source says:
(§1) • ^1Radiometric kinase assay from Eurofins. Performed in astrocytes with a Promega Lumit IL-6 kit.

The subject of a further data set is IL-6 secretion. The experiment in a line: IL-6 secretion assay in astrocytes (Promega Lumit IL-6 kit). The class given is cell-based, human. The following applies: Homo sapiens, Astrocyte, read-out: IL6-Inhib. As to the method:
IL-6 secretion assay. HCAs were plated at 20,000 cells per well in white clear bottom 96-well plates. Two to three days later, media was removed and replaced with media containing 10 ng/mL IL1B and compound dilution series. Five hours later, plates were processed using the Lumit IL-6 Assay Kit (Promega W6030) according to the manufacturer's instructions.
• ^1Radiometric kinase assay from Eurofins. Performed in astrocytes with a Promega Lumit IL-6 kit. A series of halogenated flavones was generated and assayed (Table 3).

The target in the next data set is T2, CK2A1 (Homo sapiens, UniProt P68400).
T2 construct: purchased Eurofins
T2 sequence (P68400 whole entry): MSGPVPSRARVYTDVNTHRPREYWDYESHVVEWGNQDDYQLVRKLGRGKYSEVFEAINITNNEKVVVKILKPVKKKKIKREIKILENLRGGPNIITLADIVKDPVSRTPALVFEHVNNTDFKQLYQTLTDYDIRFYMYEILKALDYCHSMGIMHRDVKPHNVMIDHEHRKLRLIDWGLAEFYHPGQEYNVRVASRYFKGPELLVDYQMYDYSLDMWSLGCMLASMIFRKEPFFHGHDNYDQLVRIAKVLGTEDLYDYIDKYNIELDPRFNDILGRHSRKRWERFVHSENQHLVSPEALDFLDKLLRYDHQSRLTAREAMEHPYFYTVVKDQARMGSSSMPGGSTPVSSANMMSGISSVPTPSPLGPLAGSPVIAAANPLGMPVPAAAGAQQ
As to the kind of experiment: Radiometric kinase assay (Eurofins), CK2A1. As to conditions: read-out: CK2A1 RAD IC50. The class given is biochemical.
Text: FIGS. 4A-4F characterize flavones for in vitro and in-cell CK2 inhibition. […] Representative of two independent experiments. […] Nonlinear fit was used to calculate IC50. […] Nonlinear fit was used to calculate IC50. […] Nonlinear fit was used to calculate IC50. […] Normalized to DMSO, data are representative of three independent experiments.
as §1

A further data set is described as follows: Aqueous solubility. As to conditions: read-out: Aqueous Solubility. The class given is physicochemical.
Setting [1] is: aqueous (not further specified), Table 3.

≈ marks a conversion by molar mass, not a printed value. Like-named read-outs stand apart in the source and are kept apart here.

As usually defined, the solubility is the concentration that dissolves in the medium under given conditions.

T1 sequence (P19784 whole entry): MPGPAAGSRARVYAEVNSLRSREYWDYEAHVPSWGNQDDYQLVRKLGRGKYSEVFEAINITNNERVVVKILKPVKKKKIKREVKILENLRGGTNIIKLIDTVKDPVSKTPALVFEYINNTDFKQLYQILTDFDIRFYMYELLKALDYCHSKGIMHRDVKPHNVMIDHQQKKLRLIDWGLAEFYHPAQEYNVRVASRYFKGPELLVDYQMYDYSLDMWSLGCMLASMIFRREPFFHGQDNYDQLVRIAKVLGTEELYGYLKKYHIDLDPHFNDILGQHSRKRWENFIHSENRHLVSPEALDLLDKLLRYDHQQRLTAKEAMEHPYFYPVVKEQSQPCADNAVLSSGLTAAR

Consider `COc1nc(-c2cc(=O)c3cc(Cl)cc(Br)c3o2)ccc1O` [JKT.669A], for which the IC50 at CK2A2 (Table 2) turned out to be 0.005 µM; in the data set with IL-6 secretion (Table 2, astrocytes), 2.9 µM; at CK2A1 (Table 2) it was 0.007 µM.
`COc1nc(-c2cc(=O)c3cc(Cl)cc(Cl)c3o2)ccc1O` [JKT.678A]: the IC50 at CK2A2 (Table 2) turned out to be 0.008 µM; in the data set on IL-6 secretion (Table 2, astrocytes) it was 3.6 µM; on CK2A1 (Table 2), 0.017 µM.
On the same counts, the results for `COc1cc(-c2cc(=O)c3cc(Br)c(OC)c(Br)c3o2)ccc1O` [JKT.706A] are 0.049 µM, 8.6 µM and 0.247 µM.
Take `O=c1cc(-c2ccc(O)c(Br)c2)oc2c(Br)cc(Cl)cc12` [JKT.714A]: the IC50 at CK2A2 (Table 3, halogenated flavones) worked out at 0.008 µM; with IL-6 secretion (Table 3) it was 4.6 µM; on CK2A1 (Table 3, halogenated flavones) it was 0.012 µM. Also, in “Aqueous solubility” (setting [1]), the solubility was found to be 35.2 µM (≈ 15.2 µg/mL).
On the same counts, the results for `O=c1cc(-c2ccc(O)c(Br)c2)oc2c(Cl)cc(Cl)cc12` [JKT.715A] are 0.016 µM, 4.1 µM, 0.018 µM and 120 µM (≈ 46.2 µg/mL).
On the same counts, the results for `O=c1cc(-c2ccc(O)c(Cl)c2)oc2c(Br)cc(Br)cc12` [JKT.721A] are 0.005 µM, 2.6 µM, 0.01 µM and 19.6 µM (≈ 8.44 µg/mL).
On the same counts, the results for `O=c1cc(-c2ccc(O)c(Cl)c2)oc2c(Br)cc(Cl)cc12` [JKT.722A] are 0.007 µM, 2.2 µM, 0.01 µM and 27.5 µM (≈ 10.6 µg/mL).
As for `O=c1cc(-c2ccc(O)c(I)c2)oc2c(Br)cc(Br)cc12` [JKT.724A], the IC50 at CK2A2 (Table 3, halogenated flavones) came to 0.007 µM; in the data set on IL-6 secretion (Table 3), 3.8 µM; at CK2A1 (Table 3, halogenated flavones) it was 0.019 µM. Further, the solubility in the data set “Aqueous solubility” (setting [1]) is 11.2 µM (≈ 5.85 µg/mL).
In the same order, the values of `O=c1cc(-c2ccc(O)c(Cl)c2)oc2c(Cl)cc(Cl)cc12` [JKT.725A] are 0.012 µM, 4.8 µM, 0.015 µM and 39.9 µM (≈ 13.6 µg/mL).
Turning to `O=C1/C(=C/c2ccc(O)c(Cl)c2)Oc2c(Br)cc(Br)cc21` [JKT.726A], the IC50 was determined as 0.026 µM on CK2A2 (Table 11, aurones); 3.4 µM in the data set with IL-6 secretion (Table 11); 0.044 µM on CK2A1 (Table 11, aurones). For the same compound, the solubility in “Aqueous solubility” (Table 11) came to 7.8 µM (≈ 3.36 µg/mL).
In the case of `O=C1/C(=C/c2ccc(O)cc2Cl)Oc2c(Br)cc(Br)cc21` [JKT.727A], the IC50 at CK2A2 (Table 11, aurones) is more than 5 µM; with IL-6 secretion (Table 11), 4.7 µM; at CK2A1 (Table 11, aurones), more than 5 µM. Further, the solubility in “Aqueous solubility” (Table 11) stood at 73.7 µM (≈ 31.7 µg/mL).
With `O=C1/C(=C/c2ccc(O)c(I)c2)Oc2c(Br)cc(Br)cc21` [JKT.728A], the IC50 on CK2A2 (Table 11, aurones) worked out at 0.07 µM; with IL-6 secretion (Table 11) it was 1.7 µM; on CK2A1 (Table 11, aurones) it was 0.081 µM. Moreover, the solubility in the data set “Aqueous solubility” (Table 11) is 17.7 µM (≈ 9.24 µg/mL).
For `O=c1[nH]c(-c2ccc(O)c(Br)c2)nc2c(Br)cc(Br)cc12` [JKT.734C], the IC50 at CK2A2 (Table 8, quinazolinones) is 0.042 µM; with IL-6 secretion (Table 8), more than 10 µM; on CK2A1 (Table 8, quinazolinones) it was 0.024 µM. In “Aqueous solubility” (aqueous medium (not further specified), Table 8), the solubility is more than 200 µM.
As for `COc1cc(-c2cc(=O)c3cc(Br)cc(Br)c3[nH]2)ccc1O` [JKT.736A], the IC50 is 0.015 µM on CK2A2 (Table 6, quinolinones); 3.9 µM in the data set on IL-6 secretion (Table 6); 0.022 µM at CK2A1 (Table 6, quinolinones). Moreover, the solubility in “Aqueous solubility” (Table 6) is 10 µM (≈ 4.25 µg/mL).
With `COc1cc(-c2nc3c(Br)cc(Br)cc3c(=O)[nH]2)ccc1O` [JKT.737B], the IC50 was 2.85 µM at CK2A2 (Table 8, quinazolinones); more than 10 µM in the data set on IL-6 secretion (Table 8); 0.863 µM on CK2A1 (Table 8, quinazolinones).
Consider `COc1nc(-c2nc3c(Br)cccc3c(=O)[nH]2)ccc1O` [JKT.975A], for which the IC50 was determined as 0.033 µM on CK2A2 (Table 8, quinazolinones) and 0.026 µM at CK2A1 (Table 8, quinazolinones).
In the case of `COc1nc(-c2nc3c(Br)nc(Br)cc3c(=O)[nH]2)ccc1O` [JKT.976B], the IC50 at CK2A2 (Table 8, quinazolinones) was 0.495 µM; with IL-6 secretion (Table 8), more than 10 µM; on CK2A1 (Table 8, quinazolinones), 0.234 µM.
For the compound `O=c1cc(-c2cc(Br)c(O)cn2)oc2c(Br)cccc12` [JKT.980A], the results for the IC50 on CK2A2 (Table 4) and on CK2A1 (Table 4) were 0.055 µM and 0.053 µM, respectively.
Turning to `COc1nc(-c2nc3c(Br)cc(Br)cc3c(=O)n2C)ccc1O` [JKT.983A], the IC50 is 0.9 µM at CK2A2 (Table 8, quinazolinones) and 0.677 µM on CK2A1 (Table 8, quinazolinones).

The values above are taken from US20260199350A1, “FLAVONES, QUINOLINONES, QUINAZOLINONES, AND AURONES, AND USES IN CK2-MEDIATED DISEASES” (Salk Institute for Biological Studies, priority 2022, published 2026).
